AC50 data for six compounds are collected here from ChEMBL document CHEMBL5291721, “A preclinical secondary pharmacology resource illuminates target-adverse drug reaction associations of marketed drugs” (Nat Commun, 2023).

The target of assay [1] is T1, Glucocorticoid receptor (Homo sapiens, UniProt P04150).
T1 sequence (P04150 whole entry): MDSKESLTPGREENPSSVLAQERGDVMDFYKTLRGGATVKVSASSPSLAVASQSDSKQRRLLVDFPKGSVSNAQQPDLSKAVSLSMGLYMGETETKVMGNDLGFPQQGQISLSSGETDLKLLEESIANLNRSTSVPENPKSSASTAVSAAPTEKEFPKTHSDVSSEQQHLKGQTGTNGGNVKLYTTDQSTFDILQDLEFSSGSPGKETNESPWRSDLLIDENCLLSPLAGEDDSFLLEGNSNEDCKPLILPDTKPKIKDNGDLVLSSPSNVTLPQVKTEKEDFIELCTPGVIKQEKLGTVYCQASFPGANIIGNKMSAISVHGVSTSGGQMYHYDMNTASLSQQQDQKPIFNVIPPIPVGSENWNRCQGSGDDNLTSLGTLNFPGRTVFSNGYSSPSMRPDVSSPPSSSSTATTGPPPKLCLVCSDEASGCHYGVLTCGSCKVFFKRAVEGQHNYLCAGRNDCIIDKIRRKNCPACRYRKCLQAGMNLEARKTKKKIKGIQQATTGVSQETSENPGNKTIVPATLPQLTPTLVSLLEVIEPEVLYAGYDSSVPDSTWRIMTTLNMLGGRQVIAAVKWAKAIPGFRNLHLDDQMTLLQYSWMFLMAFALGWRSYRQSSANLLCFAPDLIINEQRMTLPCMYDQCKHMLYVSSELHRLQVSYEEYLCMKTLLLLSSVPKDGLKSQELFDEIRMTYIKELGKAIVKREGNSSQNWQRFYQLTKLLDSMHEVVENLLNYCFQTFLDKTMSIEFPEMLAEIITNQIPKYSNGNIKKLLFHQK

In assay [2] the target is Vasopressin V2 receptor (Homo sapiens, UniProt P30518).
The target in assay [3] is Sodium-dependent serotonin transporter (Homo sapiens, UniProt P31645).
Assay [4] has as its target T2, 5-hydroxytryptamine receptor 1A (Homo sapiens, UniProt P08908).
T2 sequence (P08908 whole entry): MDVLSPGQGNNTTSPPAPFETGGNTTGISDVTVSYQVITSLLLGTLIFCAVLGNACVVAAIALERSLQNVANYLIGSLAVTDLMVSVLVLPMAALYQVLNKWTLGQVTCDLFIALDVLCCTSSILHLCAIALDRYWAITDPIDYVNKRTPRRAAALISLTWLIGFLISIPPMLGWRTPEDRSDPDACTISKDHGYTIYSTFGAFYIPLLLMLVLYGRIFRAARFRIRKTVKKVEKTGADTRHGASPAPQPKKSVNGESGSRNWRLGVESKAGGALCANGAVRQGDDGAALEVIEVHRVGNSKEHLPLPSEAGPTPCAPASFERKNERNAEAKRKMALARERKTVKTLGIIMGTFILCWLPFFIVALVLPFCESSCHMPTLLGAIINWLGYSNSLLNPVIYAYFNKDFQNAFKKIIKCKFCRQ
The class given is functional, cell-based.

Assay [5] addresses T3, Type-1 angiotensin II receptor (Homo sapiens, UniProt P30556).
T3 sequence (P30556 whole entry): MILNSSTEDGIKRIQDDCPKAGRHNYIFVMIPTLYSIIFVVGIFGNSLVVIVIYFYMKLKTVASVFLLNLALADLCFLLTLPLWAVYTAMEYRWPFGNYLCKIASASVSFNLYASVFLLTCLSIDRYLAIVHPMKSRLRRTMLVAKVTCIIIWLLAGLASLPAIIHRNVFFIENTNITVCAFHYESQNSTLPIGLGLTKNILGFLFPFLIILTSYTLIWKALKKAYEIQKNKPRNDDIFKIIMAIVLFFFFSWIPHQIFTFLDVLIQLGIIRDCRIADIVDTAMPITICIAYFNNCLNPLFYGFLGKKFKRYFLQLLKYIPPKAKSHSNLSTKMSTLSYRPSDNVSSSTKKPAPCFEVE

In assay [6] the target is 5-hydroxytryptamine receptor 2A (Homo sapiens, UniProt P28223). The class given is functional, cell-based.
For assay [7], the target named is T4, Progesterone receptor (Homo sapiens, UniProt P06401).
T4 sequence (P06401 whole entry): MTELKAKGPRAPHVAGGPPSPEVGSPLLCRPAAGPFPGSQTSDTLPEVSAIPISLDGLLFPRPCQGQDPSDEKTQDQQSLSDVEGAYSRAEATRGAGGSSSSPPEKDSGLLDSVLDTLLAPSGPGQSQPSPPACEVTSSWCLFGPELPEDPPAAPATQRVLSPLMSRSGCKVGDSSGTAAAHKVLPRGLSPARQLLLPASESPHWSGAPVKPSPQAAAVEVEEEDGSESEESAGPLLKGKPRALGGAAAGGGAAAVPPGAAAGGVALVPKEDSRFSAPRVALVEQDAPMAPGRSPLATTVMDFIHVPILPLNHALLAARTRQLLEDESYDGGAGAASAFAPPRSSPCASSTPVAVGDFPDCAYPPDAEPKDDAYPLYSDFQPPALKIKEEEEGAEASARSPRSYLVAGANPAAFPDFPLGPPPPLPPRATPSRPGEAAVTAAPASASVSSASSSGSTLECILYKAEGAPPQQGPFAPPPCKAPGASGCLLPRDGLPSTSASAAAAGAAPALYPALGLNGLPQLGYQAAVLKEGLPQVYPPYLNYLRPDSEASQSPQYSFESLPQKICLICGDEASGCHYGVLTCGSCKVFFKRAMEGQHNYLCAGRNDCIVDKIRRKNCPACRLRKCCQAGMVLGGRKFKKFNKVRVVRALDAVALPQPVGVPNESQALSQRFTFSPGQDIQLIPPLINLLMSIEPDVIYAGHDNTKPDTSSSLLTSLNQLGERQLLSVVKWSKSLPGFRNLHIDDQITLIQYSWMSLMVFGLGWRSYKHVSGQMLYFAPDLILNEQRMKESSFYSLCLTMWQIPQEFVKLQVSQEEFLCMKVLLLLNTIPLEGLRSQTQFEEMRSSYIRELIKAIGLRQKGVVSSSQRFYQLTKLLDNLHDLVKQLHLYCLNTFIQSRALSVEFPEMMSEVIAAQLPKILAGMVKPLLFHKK
The format is functional.

In assay [8] the target is Beta-2 adrenergic receptor (Homo sapiens, UniProt P07550).
Note: assay procedure not described here.

Sequence of Beta-2 adrenergic receptor (P07550 whole entry): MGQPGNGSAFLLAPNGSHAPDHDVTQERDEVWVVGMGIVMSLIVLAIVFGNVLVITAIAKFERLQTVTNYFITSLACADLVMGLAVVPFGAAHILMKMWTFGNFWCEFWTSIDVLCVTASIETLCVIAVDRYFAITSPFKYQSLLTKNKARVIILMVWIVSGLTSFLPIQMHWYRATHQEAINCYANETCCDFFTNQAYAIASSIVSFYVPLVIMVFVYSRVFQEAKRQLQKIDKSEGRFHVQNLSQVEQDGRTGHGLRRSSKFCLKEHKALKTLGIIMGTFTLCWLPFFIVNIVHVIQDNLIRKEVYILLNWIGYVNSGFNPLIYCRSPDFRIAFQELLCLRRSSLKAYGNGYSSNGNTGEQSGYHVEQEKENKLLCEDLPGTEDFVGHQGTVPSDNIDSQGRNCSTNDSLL
Sequence of Sodium-dependent serotonin transporter (P31645 whole entry): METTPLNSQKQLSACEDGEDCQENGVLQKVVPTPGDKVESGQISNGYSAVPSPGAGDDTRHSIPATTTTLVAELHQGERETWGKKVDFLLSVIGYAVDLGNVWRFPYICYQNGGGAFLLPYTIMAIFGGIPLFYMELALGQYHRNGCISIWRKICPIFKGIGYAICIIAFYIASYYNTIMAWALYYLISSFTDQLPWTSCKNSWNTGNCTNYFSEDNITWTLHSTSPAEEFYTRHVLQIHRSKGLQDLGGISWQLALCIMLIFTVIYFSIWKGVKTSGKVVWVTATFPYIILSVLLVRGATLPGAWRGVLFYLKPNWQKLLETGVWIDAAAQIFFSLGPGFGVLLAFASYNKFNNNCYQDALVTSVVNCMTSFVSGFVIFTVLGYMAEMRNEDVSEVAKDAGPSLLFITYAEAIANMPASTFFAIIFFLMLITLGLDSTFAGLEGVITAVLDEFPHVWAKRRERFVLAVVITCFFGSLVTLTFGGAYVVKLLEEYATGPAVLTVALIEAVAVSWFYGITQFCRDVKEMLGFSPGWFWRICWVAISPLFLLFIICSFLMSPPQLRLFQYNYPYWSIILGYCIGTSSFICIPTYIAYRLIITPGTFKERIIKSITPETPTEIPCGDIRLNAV
Sequence of Vasopressin V2 receptor (P30518 whole entry): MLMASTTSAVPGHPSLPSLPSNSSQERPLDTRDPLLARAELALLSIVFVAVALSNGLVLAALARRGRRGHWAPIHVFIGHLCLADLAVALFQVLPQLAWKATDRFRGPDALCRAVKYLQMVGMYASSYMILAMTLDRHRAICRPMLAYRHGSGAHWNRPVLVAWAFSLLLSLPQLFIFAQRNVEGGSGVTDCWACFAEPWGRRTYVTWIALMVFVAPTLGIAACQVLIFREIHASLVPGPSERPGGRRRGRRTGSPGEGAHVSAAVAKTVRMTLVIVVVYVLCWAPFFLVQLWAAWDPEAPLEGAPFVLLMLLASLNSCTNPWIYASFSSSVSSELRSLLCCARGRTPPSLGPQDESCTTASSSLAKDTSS
Sequence of 5-hydroxytryptamine receptor 2A (P28223 whole entry): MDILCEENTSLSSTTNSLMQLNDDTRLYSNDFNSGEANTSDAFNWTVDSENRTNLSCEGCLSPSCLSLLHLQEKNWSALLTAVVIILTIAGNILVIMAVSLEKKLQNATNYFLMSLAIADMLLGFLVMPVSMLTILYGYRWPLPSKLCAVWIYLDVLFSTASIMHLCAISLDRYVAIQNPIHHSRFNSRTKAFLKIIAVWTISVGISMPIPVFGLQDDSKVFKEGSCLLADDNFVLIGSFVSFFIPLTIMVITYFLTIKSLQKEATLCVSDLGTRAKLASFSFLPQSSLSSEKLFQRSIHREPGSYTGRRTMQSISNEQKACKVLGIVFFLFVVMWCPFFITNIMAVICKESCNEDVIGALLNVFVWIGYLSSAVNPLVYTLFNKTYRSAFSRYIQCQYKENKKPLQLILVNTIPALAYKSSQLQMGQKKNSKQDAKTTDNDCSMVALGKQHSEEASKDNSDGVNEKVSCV

By AC50 is commonly meant the concentration giving half of the maximal activity seen. Read a high AC50 as weaker potency. Take `CC(=O)N[C@H]1[C@H]([C@H](O)[C@H](O)CO)OC(C(=O)O)=C[C@@H]1N=C(N)N` [ZANAMIVIR]: the concentration at half-maximal activity (AC50) in assay [1], in assay [2], in assay [3], in assay [4], in assay [5] and in assay [6] was above 30 µM throughout. The half-maximal activity concentration (AC50) in assay [7] and in assay [8] was above 30 µM throughout.

With `CC(C)NCC1CCc2cc(CO)c([N+](=O)[O-])cc2N1` (configuration not stated) [OXAMNIQUINE], the concentration at half-maximal activity (AC50) was above 10 µM in assay [1]; above 10 µM in assay [2]; 39.6 µM in assay [3]; above 30 µM in assay [4]; above 10 µM in assay [5]; above 30 µM in assay [6]. The concentration at half-maximal activity (AC50) in assay [7] and in assay [8] was above 10 µM in each case.

Regarding `CN(C)[C@@H]1C(O)=C(C(N)=O)C(=O)[C@@]2(O)C(O)=C3C(=O)c4c(O)ccc(Cl)c4[C@@H](O)[C@H]3C[C@@H]12` [DEMECLOCYCLINE], the AC50 in assay [1] is above 30 µM; in assay [2], above 10 µM; in assay [3], above 10 µM; in assay [4], above 10 µM; in assay [5], above 10 µM; in assay [6], above 10 µM. Further, the half-maximal activity concentration (AC50) in assay [7] is above 30 µM; in assay [8], above 10 µM.

In the case of `O=C(O)CCn1c2c(c3ccccc31)C[C@H](NS(=O)(=O)c1ccc(F)cc1)CC2` [RAMATROBAN], the half-maximal activity concentration (AC50) in assay [1] was above 30 µM; in assay [2], above 30 µM; in assay [3] it was above 30 µM; in assay [4], above 10 µM; in assay [5] it was above 30 µM; in assay [6], above 10 µM. For the same compound, the AC50 in assay [7] and in assay [8] was above 30 µM in each case.

As to `NS(=O)(=O)c1cc(Cl)c(Cl)c(S(N)(=O)=O)c1` [DICHLORPHENAMIDE], the AC50 in assay [1], in assay [2], in assay [3], in assay [4], in assay [5] and in assay [6] was above 10 µM in each case. Further, the concentration at half-maximal activity (AC50) in assay [7] and in assay [8] was above 10 µM throughout.

For the compound `NS(=O)(=O)c1cc(-c2nnn[nH]2)c(NCc2cccs2)cc1Cl` [AZOSEMIDE], the concentration at half-maximal activity (AC50) in assay [1], in assay [2], in assay [3], in assay [5], in assay [6] and in assay [7] was above 30 µM each time. The compound further registered an AC50 in assay [8] above 30 µM.
